One data set addresses T1, human glucagon receptor (Homo sapiens, UniProt P47871).
T1 construct: expressed in transfected cells; host or cells: BHK (baby hamster kidney) cells, membrane preparation
The data set can be described thus: Glucagon Binding Assay (II). The procedure, abridged:
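Membranes from BHK cells transfected with the human glucagon receptor were incubated with test compound (in DMSO) in HEPES buffer pH 7.5 with Ca2+/Mg2+ and WGA beads for 4 h, then settled 8–48 h before scintillation counting. Non-specific binding was defined with 500 nM glucagon.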

In a further data set the target is T2, human GIP receptor (Homo sapiens, UniProt P48546).
T2 construct: expressed in transfected cells; host or cells: BHK (baby hamster kidney) cells, membrane preparation
T2 sequence (P48546 22-466): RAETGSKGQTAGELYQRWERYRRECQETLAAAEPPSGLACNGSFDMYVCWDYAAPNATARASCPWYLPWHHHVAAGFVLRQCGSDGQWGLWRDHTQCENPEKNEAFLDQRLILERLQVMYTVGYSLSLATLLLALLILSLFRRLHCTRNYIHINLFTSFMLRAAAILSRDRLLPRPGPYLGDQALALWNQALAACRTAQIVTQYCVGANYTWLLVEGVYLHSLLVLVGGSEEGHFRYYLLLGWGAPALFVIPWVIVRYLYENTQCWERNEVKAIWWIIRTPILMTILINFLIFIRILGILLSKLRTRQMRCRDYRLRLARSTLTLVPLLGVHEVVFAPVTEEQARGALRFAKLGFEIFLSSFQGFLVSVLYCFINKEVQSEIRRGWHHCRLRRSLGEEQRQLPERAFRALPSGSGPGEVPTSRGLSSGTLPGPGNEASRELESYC
As to the kind of experiment: GIP Binding Assay. The following applies: membranes of BHK cells transfected with human GIP receptor, 125I-GIP, SPA; read-out: GIP Bd Assay IC50. The procedure, abridged: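 Membranes from BHK cells transfected with human GIP receptor; competition binding in HEPES pH 7.5 buffer with Ca2+/Mg2+, compounds added in DMSO, WGA SPA beads. Incubated 3.5 h shaking, settled 8-48 h, then scintillation counted; non-specific binding defined with 500 nM GIP.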

The mark [1] stands for this setting: membranes of BHK cells transfected with human glucagon receptor, 125I-glucagon, SPA, read-out: Glu Bd Assay (II) IC50.

Read-outs that look alike come from different tables or passages of the source. Bounds are passed on as bounds.

T1 sequence (P47871 26-477): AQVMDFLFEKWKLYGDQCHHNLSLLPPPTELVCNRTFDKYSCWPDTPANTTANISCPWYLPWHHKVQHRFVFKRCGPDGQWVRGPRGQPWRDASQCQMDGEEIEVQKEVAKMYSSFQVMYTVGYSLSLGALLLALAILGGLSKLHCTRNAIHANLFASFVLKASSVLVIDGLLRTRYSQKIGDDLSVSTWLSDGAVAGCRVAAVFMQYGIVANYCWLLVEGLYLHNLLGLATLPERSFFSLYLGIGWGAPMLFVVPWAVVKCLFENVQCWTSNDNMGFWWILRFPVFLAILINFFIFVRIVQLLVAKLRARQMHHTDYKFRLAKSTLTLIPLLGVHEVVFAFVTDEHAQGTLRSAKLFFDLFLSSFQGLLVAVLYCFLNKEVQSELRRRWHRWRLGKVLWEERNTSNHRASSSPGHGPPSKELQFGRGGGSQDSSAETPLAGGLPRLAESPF

The compound `CC(C)(C)C1CC=C(c2ccc(N(Cc3ccc(C(=O)NC[C@@H](O)C(=O)O)cc3)C(=O)Nc3cc(Cl)cc(Cl)c3)cc2)CC1` (stereo partly drawn) [Example 33, 3-{4-[1-[4-(4-tert-Butylcyclohex-1-enyl)phenyl]-3-(3,5-dichlorophenyl)ureidomethyl]benzoyl-amino}-2-(R)-hydroxypropionic Acid] showed a melting point of 151 to 155 °C. The IC50 on human glucagon receptor (setting [1]) worked out at 12 nM. In addition, at human GIP receptor, the IC50 was determined as 189 nM.

For `CC(C)(C)[C@H]1CC[C@H](N(Cc2ccc(C(=O)NC[C@H](O)C(=O)O)cc2)C(=O)Nc2cc(C(F)(F)F)cc(C(F)(F)F)c2)CC1` [Example 13, (S)-Trans-3-{4-[3-(3,5-Bis(trifluoromethyl)phenyl)-1-(4-tert-butylcyclohexyl)ureidomethyl]benzoylamino}-2-hydroxypropionic acid], the melting point was 185 to 187 °C. Moreover, at human glucagon receptor (setting [1]), the IC50 came out at 228 nM. Moreover, the IC50 at human GIP receptor was 700 nM.

`CC(=O)c1ccc(NC(=O)N(Cc2ccc(C(=O)NC[C@@H](O)C(=O)O)cc2)c2ccc(C3CCCCC3)cc2)cc1` [Example 53, (R)-3-{4-[3-(4-Acetylphenyl)-1-(4-cyclohexylphenyl)ureidomethyl]benzoylamino}-2-hydroxypropionic acid]: the IC50 at human glucagon receptor (setting [1]) was 390 nM; on human GIP receptor, greater than 3000 nM.

On to `O=C(NC[C@@H](O)C(=O)O)c1ccc(CN(C(=O)Nc2cccc(Br)c2)c2ccc(C3CCCCC3)cc2)cc1` [Example 3, (R)-3-{4-[3-(3-Bromophenyl)-1-(4-cyclohexylphenyl)ureidomethyl]benzoylamino}-2-hydroxypropionic acid], for which the IC50 at human glucagon receptor (setting [1]) worked out at 18 nM; on human GIP receptor, 653 nM.

Turning to `O=C(NC[C@@H](O)C(=O)O)c1ccc(CN(C(=O)Cc2ccc(Cl)c(Cl)c2)c2ccc(C3CCCCC3)cc2)cc1` [Example 68, (R)-3-[4-({(4-Cyclohexylphenyl)-[(3,4-dichlorophenyl)acetyl]amino}methyl)benzoylamino]-2-hydroxypropionic acid], the IC50 at human glucagon receptor is 528 nM; at human GIP receptor it was greater than 3000 nM.

As for `CC(C)(C)C1CCC(N(Cc2ccc(C(=O)NC[C@@H](O)C(=O)O)cc2)C(=O)Cc2ccc(OC(F)(F)F)cc2)CC1` (stereo partly drawn) [Example 56, (R)-3-[4-({(4-tert-Butylcyclohexyl)-[2-(4-trifluoromethoxyphenyl)acetyl]amino}methyl)benzoylamino]-2-hydroxypropionic acid], the IC50 at human glucagon receptor (setting [1]) was determined as 228 nM; on human GIP receptor, 1370 nM.

As to `O=C(NC[C@@H](O)C(=O)O)c1ccc(CN(C(=O)NCc2ccccc2)c2ccc(C3=CCCCC3)cc2)cc1` [Example 22, (R)-3-{4-[3-Benzyl-1-(4-cyclohex-1-enylphenyl)ureidomethyl]benzoylamino}-2-hydroxypropionic acid], the IC50 on human glucagon receptor (setting [1]) turned out to be 354 nM; at human GIP receptor, 2270 nM.

In the case of `O=C(NC[C@@H](O)C(=O)O)c1ccc(CN(C(=O)Nc2ccccc2)c2ccc(C3=CCCCC3)cc2)cc1` [Example 21, (R)-3-{4-[1-(4-Cyclohex-1-enylphenyl)-3-phenylureidomethyl]benzoylamino}-2-hydroxypropionic acid], the figures for the IC50 on human glucagon receptor (setting [1]) and on human GIP receptor were 293 nM and 1260 nM, respectively.

`O=C(NC[C@@H](O)C(=O)O)c1ccc(CN(C(=O)Nc2ccc(OC(F)(F)F)c(CO)c2)c2ccc(C3CCCCC3)cc2)cc1` [Example 39, (R)-3-{4-[1-(4-Cyclohexylphenyl)-3-(3-hydroxymethyl-4-trifluoromethoxyphenyl)ureidomethyl]-benzoylamino}-2-hydroxypropionic Acid]: the IC50 at human glucagon receptor (setting [1]) turned out to be 18 nM; on human GIP receptor, 357 nM.

As for `CS(=O)(=O)c1cc(NC(=O)N(Cc2ccc(C(=O)NC[C@@H](O)C(=O)O)cc2)c2ccc(C3=CCCCC3)cc2)ccc1OC(F)(F)F` [Example 25, (R)-3-{4-[1-(4-Cyclohexen-1-ylphenyl)-3-(3-methanesulfonyl-4-trifluoromethoxyphenyl)ureidomethyl]benzoylamino}-2-hydroxypropionic acid], the IC50 at human glucagon receptor (setting [1]) is 10 nM; at human GIP receptor, 465 nM.

For the compound `COc1cc(NC(=O)N(Cc2ccc(C(=O)NC[C@@H](O)C(=O)O)cc2)c2ccc(C3=CCCCC3)cc2)cc(C(F)(F)F)c1` [Example 10, (R)-3-{4-[1-(4-Cyclohex-1-enylphenyl)-3-(3-methoxy-5-trifluoromethylphenyl)ureidomethyl]benzoylamino}-2-hydroxypropionic acid], the IC50 on human glucagon receptor (setting [1]) amounted to 19 nM; at human GIP receptor, 294 nM.

Consider `O=C(NC[C@@H](O)C(=O)O)c1ccc(CN(C(=O)Cc2cccc(C(F)(F)F)c2)c2ccc(C3CCCCC3)cc2)cc1` [Example 67, (R)-3-[4-({(4-Cyclohexylphenyl)-[(3-trifluoromethylphenyl)acetyl]amino}methyl)benzoylamino]-2-hydroxypropionic acid], for which the IC50 at human glucagon receptor (setting [1]) is 520 nM; at human GIP receptor, greater than 3000 nM.

Regarding `Cc1cc(NC(=O)N(Cc2ccc(C(=O)NC[C@@H](O)C(=O)O)cc2)[C@H]2CC[C@H](C(C)(C)C)CC2)cc(C(F)(F)F)c1` [Example 15, Trans-(R)-3-{4-[3-(3-methyl-5-trifluoromethylphenyl)-1-(4-tert-butylcyclohexyl)ureidomethyl]benzoylamino}-2-hydroxypropionic acid], the figures for the IC50 at human glucagon receptor (setting [1]) and at human GIP receptor were 35 nM and 395 nM, respectively.

Consider `O=C(NC[C@@H](O)C(=O)O)c1ccc(CN(CC(c2ccccc2)c2ccccc2)C(=O)Cc2ccc(OC(F)(F)F)cc2)cc1` [Example 60, (R)-3-[4-({(2,2-Diphenylethyl)-[2-(4-trifluoromethoxyphenyl)acetyl]amino}methyl)benzoylamino]-2-hydroxypropionic acid], for which the IC50 at human glucagon receptor (setting [1]) was 1020 nM; at human GIP receptor, greater than 3000 nM.

For `CC(C)c1ccc(NC(=O)N(Cc2ccc(C(=O)NC[C@@H](O)C(=O)O)cc2)c2ccc(C3CCCCC3)cc2)cc1` [Example 51, (R)-3-{4-[1-(4-Cyclohexylphenyl)-3-(4-isopropylphenyl)ureidomethyl]benzoylamino}-2-hydroxypropionic acid], the IC50 at human glucagon receptor (setting [1]) was 88 nM; at human GIP receptor, 831 nM.

Consider `O=C(NC[C@@H](O)C(=O)O)c1ccc(CN(C(=O)Nc2cc(C(F)(F)F)cc(C(F)(F)F)c2)c2ccc(C3CCCCC3)cc2)cc1` [Example 2, (R)-3-{4-[3-(3,5-Bis(trifluoromethyl)phenyl)-1-(4-cyclohexylphenyl)ureidomethyl]benzoylamino}-2-hydroxypropionic acid], for which the figures for the IC50 on human glucagon receptor (setting [1]) and on human GIP receptor were 12 nM and 269 nM, respectively.

On to `O=C(NC[C@@H](O)C(=O)O)c1ccc(CN(C(=O)Nc2ccc(F)c([N+](=O)[O-])c2)c2ccc(C3CCCCC3)cc2)cc1` [Example 50, (R)-3-{4-[1-(4-Cyclohexylphenyl)-3-(4-fluoro-3-nitrophenyl)ureidomethyl]benzoylamino}-2-hydroxypropionic acid], for which the IC50 at human glucagon receptor (setting [1]) was 119 nM; at human GIP receptor it was greater than 3000 nM.

With `N#Cc1ccc(NC(=O)N(Cc2ccc(C(=O)NC[C@@H](O)C(=O)O)cc2)c2ccc(C3CCCCC3)cc2)cc1C(F)(F)F` [Example 37, (R)-3-{4-[3-(4-Cyano-3-trifluoromethylphenyl)-1-(4-cyclohexylphenyl)ureidomethyl]benzoyl-amino}-2-hydroxypropionic Acid], the results for the IC50 on human glucagon receptor (setting [1]) and on human GIP receptor were 19 nM and 520 nM, respectively.

In turn, `CC(C)(C)[C@H]1CC[C@H](N(Cc2ccc(C(=O)NC[C@@H](O)C(=O)O)cc2)C(=O)Nc2cc(C(F)(F)F)cc(C(F)(F)F)c2)CC1` [Example 14, (R)-Trans-3-{4-[3-(3,5-bis(trifluoromethyl)phenyl)-1-(4-tert-butylcyclohexyl)ureidomethyl]benzoylamino}-2-hydroxypropionic acid] returned a melting point of 184 to 187 °C. In addition, at human glucagon receptor (setting [1]), the IC50 was found to be 19 nM. Also, the IC50 at human GIP receptor was found to be 274 nM.

With `O=C(NC[C@@H](O)C(=O)O)c1ccc(CN(C(=O)Nc2ccc(Cl)c(Cl)c2)c2ccc(C3=CCCCC3)cc2)cc1` [Example 52, (R)-3-{4-[1-(4-Cyclohex-1-enylphenyl)-3-(3,4-dichlorophenyl)ureidomethyl]benzoylamino}-2-hydroxypropionic acid], the IC50 turned out to be 47 nM at human glucagon receptor (setting [1]) and 341 nM on human GIP receptor.

By IC50 is commonly meant the concentration that inhibits the measured activity by half. One may read the melting point as the temperature of the solid-liquid transition.

For the origin of these results see patent publication US6953812B2, “Glucagon antagonists/inverse agonists” (Novo Nordisk, Inc., priority 2000, dated 2005).
